From US11078170B2 (Assembly Biosciences, Inc., priority 2017, dated 2021)

System: HBV viral production from HepAD38 cells
Assay: Activity of test compounds on viral production from HepAD38 cells (viral load by qPCR of HBV core sequence in supernatant)
Assay type: cell-based
Details: Hepatitis B virus, 120 h, 5 days incubation, HBV DNA in supernatant by qPCR, top concentration 10 μM, read-out: Viral Load EC50 Activity range
How it was run: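 EC50 and CC50 come from four-parameter fits of supernatant viral load and CellTiter-Glo viability, respectively. Viral load was measured by core-region TaqMan qPCR against HBV DNA standards and compared with DMSO controls. Tet-free HepAD38 cells (50,000/well, 2% FBS) were exposed to compound, highest 10 μM, for 5 days at 37° C.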

Compound	EC50 [nM]
CN1[C@H](C(=O)Nc2ccc(F)c(Cl)c2)C[C@H](c2cc(-c3nncn3C)cs2)NS1(=O)=O [HBV-CSU-328-ISO-I, Cis-N-(3-chloro-4-fluorophenyl)-2-methyl-5-(4-(4-methyl-4H-1,2,4-triazol-3-yl)thiophen-2-yl)-1,2,6-thiadiazinane-3-carboxamide 1,1-dioxide]	< 1000
CN1[C@@H](C(=O)Nc2ccc(F)c(Cl)c2)C[C@@H](c2cc(-c3nncn3C)cs2)NS1(=O)=O [HBV-CSU-328-ISO-II, Cis-N-(3-chloro-4-fluorophenyl)-2-methyl-5-(4-(4-methyl-4H-1,2,4-triazol-3-yl)thiophen-2-yl)-1,2,6-thiadiazinane-3-carboxamide 1,1-dioxide]	> 5000
CN1C(C(=O)Nc2ccc(F)c(Cl)c2)CC(c2cc(Cl)c(Br)s2)NS1(=O)=O (stereo not drawn) [HBV-CSU-329, Cis-5-(5-bromo-4-chlorothiophen-2-yl)-N-(3-chloro-4-fluorophenyl)-2-methyl-1,2,6-thiadiazinane-3-carboxamide 1,1-dioxide]	< 1000
CN1C(C(=O)Nc2ccc(F)c(Cl)c2)CC(c2cc(Br)c(Cl)s2)NS1(=O)=O (stereo not drawn) [HBV-CSU-330, Cis-5-(4-bromo-5-chlorothiophen-2-yl)-N-(3-chloro-4-fluorophenyl)-2-methyl-1,2,6-thiadiazinane-3-carboxamide 1,1-dioxide]	< 1000
CN1[C@H](C(=O)Nc2ccc(F)c(Cl)c2)C[C@H](c2ccc(-c3c[nH]cn3)s2)NS1(=O)=O [HBV-CSU-331-ISO-I, Cis-5-(5-(1H-imidazol-4-yl)thiophen-2-yl)-N-(3-chloro-4-fluorophenyl)-2-methyl-1,2,6-thiadiazinane-3-carboxamide 1,1-dioxide]	< 1000
CN1[C@@H](C(=O)Nc2ccc(F)c(Cl)c2)C[C@@H](c2ccc(-c3c[nH]cn3)s2)NS1(=O)=O [HBV-CSU-331-ISO-II, Cis-5-(5-(1H-imidazol-4-yl)thiophen-2-yl)-N-(3-chloro-4-fluorophenyl)-2-methyl-1,2,6-thiadiazinane-3-carboxamide 1,1-dioxide]	1000 to 5000
CN1[C@H](C(=O)Nc2ccc(F)c(Cl)c2)C[C@H](c2ncc(-c3c[nH]cn3)s2)NS1(=O)=O [HBV-CSU-333-ISO-I, 5-(5-(1H-imidazol-4-yl)thiazol-2-yl)-N-(3-chloro-4-fluorophenyl)-2-methyl-1,2,6-thiadiazinane-3-carboxamide 1,1-dioxide]	< 1000
CCc1sc(C2CC(C(=O)Nc3ccc(F)c(Cl)c3)N(C)S(=O)(=O)N2)cc1Br (stereo not shown) [HBV-CSU-334, 5-(4-bromo-5-ethylthiophen-2-yl)-N-(3-chloro-4-fluorophenyl)-2-methyl-1,2,6-thiadiazinane-3-carboxamide 1,1-dioxide]	< 1000
Cc1cc(C2CC(C(=O)Nc3ccc(F)c(Cl)c3)N(C)S(=O)(=O)N2)sc1Br (stereo not drawn) [HBV-CSU-335, Cis-5-(5-bromo-4-methylthiophen-2-yl)-N-(3-chloro-4-fluorophenyl)-2-methyl-1,2,6-thiadiazinane-3-carboxamide 1,1-dioxide]	< 1000
[2H]C([2H])([2H])N1C(C(=O)Nc2ccc(F)c(Cl)c2)CC(c2ncc(Br)s2)NS1(=O)=O (stereo not shown) [HBV-CSU-336, 5-(5-Bromothiazol-2-yl)-N-(3-chloro-4-fluorophenyl)-2-(methyl-d3)-1,2,6-thiadiazinane-3-carboxamide 1,1-dioxide]	< 1000
[2H]C([2H])([2H])N1[C@H](C(=O)Nc2ccc(F)c(Cl)c2)C[C@H](c2ncc(Br)s2)NS1(=O)=O [HBV-CSU-336-ISO-I, 5-(5-Bromothiazol-2-yl)-N-(3-chloro-4-fluorophenyl)-2-(methyl-d3)-1,2,6-thiadiazinane-3-carboxamide 1,1-dioxide]	< 1000
[2H]C([2H])([2H])N1[C@@H](C(=O)Nc2ccc(F)c(Cl)c2)C[C@@H](c2ncc(Br)s2)NS1(=O)=O [HBV-CSU-336-ISO-II, 5-(5-Bromothiazol-2-yl)-N-(3-chloro-4-fluorophenyl)-2-(methyl-d3)-1,2,6-thiadiazinane-3-carboxamide 1,1-dioxide]	1000 to 5000
[2H]C([2H])([2H])N1[C@H](C(=O)Nc2ccc(F)c(Cl)c2)C[C@H](c2ncc(-c3cn(C([2H])([2H])[2H])cn3)s2)NS1(=O)=O [HBV-CSU-337-ISO-I, Cis-N-(3-Chloro-4-fluorophenyl)-2-(methyl-d3)-5-(5-(1-(methyl-d3)-1H-imidazol-4-yl)thiazol-2-yl)-1,2,6-thiadiazinane-3-carboxamide 1,1-dioxide]	< 1000
[2H]C([2H])([2H])N1[C@H](C(=O)Nc2ccc(F)c(Cl)c2)C[C@H](c2ncc(-c3cn(C)cn3)s2)NS1(=O)=O [HBV-CSU-338-ISO-I, Cis-N-(3-Chloro-4-fluorophenyl)-2-(methyl-d3)-5-(5-(1-methyl-1H-imidazol-4-yl)thiazol-2-yl)-1,2,6-thiadiazinane-3-carboxamide 1,1-dioxide]	< 1000
CN1[C@H](C(=O)Nc2ccc(F)c(Cl)c2)C[C@H](c2ccc3c(c2)ncn3C)NS1(=O)=O [HBV-CSU-360-ISO-I, Cis-N-(3-chloro-4-fluorophenyl)-2-methyl-5-(1-methyl-1H-benzo[d]imidazol-5-yl)-1,2,6-thiadiazinane-3-carboxamide 1,1-dioxide]	1000 to 5000
CN1[C@H](C(=O)Nc2ccc(F)c(Br)c2)C[C@H](c2ncc(-c3cn(C)cn3)s2)NS1(=O)=O [HBV-CSU-369, (3S,5R)—N-(3-bromo-4-fluorophenyl)-2-methyl-5-(5-(1-methyl-1H-imidazol-4-yl)thiazol-2-yl)-1,2,6-thiadiazinane-3-carboxamide 1,1-dioxide]	< 1000
[2H]C([2H])([2H])N1[C@H](C(=O)Nc2ccc(F)c(Cl)c2)C[C@H](c2ccc(Br)s2)NS1(=O)=O [HBV-CSU-370-ISO-I, Cis-5-(5-bromothiophen-2-yl)-N-(3-chloro-4-fluorophenyl)-2-(methyl-d3)-1,2,6-thiadiazinane-3-carboxamide 1,1-dioxide]	< 1000
[2H]C1C([2H])(c2ccc(Br)s2)NS(=O)(=O)N(C)C1([2H])C(=O)Nc1ccc(F)c(Cl)c1 (stereo not drawn) [HBV-CSU-371, Cis-5-(5-Bromothiophen-2-yl)-N-(3-chloro-4-fluorophenyl)-2-methyl-1,2,6-thiadiazinane-3,4,5-d3-3-carboxamide 1,1-dioxide]	< 1000
[2H]C1C([2H])(c2ccc(Br)s2)NS(=O)(=O)N(C([2H])([2H])[2H])C1([2H])C(=O)Nc1ccc(F)c(Cl)c1 (stereo not drawn) [HBV-CSU-372, Cis-5-(5-bromothiophen-2-yl)-N-(3-chloro-4-fluorophenyl)-2-(methyl-d3)-1,2,6-thiadiazinane-3,4,5-d3-3-carboxamide 1,1-dioxide]	< 1000
[2H]C([2H])([2H])N1[C@H](C(=O)Nc2ccc(F)c(Cl)c2)C[C@H](c2ccc(-c3cn(C)cn3)s2)NS1(=O)=O [HBV-CSU-373-ISO-I, Cis-N-(3-Chloro-4-fluorophenyl)-2-(methyl-d3)-5-(5-(1-methyl-1H-imidazol-4-yl)thiophen-2-yl)-1,2,6-thiadiazinane-3-carboxamide 1,1-dioxide]	< 1000
[2H]C([2H])([2H])N1C(C(=O)Nc2ccc(F)c(Cl)c2)CC(c2ccc(-c3cn(C)cn3)s2)NS1(=O)=O (stereo not shown) [HBV-CSU-373]	< 1000
[2H]C([2H])([2H])N1C(C(=O)Nc2ccc(F)c(Cl)c2)CC(c2ccc(-c3cn(C([2H])([2H])[2H])cn3)s2)NS1(=O)=O (stereo not shown) [HBV-CSU-374]	< 1000
